In patent US20060106207A1, “Nucleotide sequences that encode deregulated phosphoglycerate dehydrogenases of coryneform bacteria and method for producing l-serine” (Forschungszentrum Julich GMBH, priority 2002, published 2006):

Legend:
Type in all cases: biochemical, Corynebacterium glutamicum
[1] = system: Wild Type 3-Phosphoglycerate-Dehydrogenase of C. glutamicum; assay: Inhibition of wild type 3-phosphoglycerate-dehydrogenase by L-serine in cell-free extracts
Method: (§1) The cells were harvested in the exponential growth phase at OD600 of 5 to 8 and washed twice in 100 mM Tris-HCl, pH 7.5. The cell pellets were then frozen at −20° C. until disintegration. The frozen cell pellets were moisturized on ice and resuspended with 2 ml cold Tris-HCl pH 7.5/10% glycerine in a Brenson sonifier for 10 minutes. Then the cell fragments were separated by centrifugation at 13000 rpm and 4° C. in a Sigma -202 MK centrifuge. The thus obtained supernatant is desalted as a raw extract initially on a PD-10 column using the conditions set by the manufacturer (Amersham Pharmacia Biotech) and then immediately subjected to enzyme measurement. The enzyme test relied upon the photometric detection of the formation of NADH in the reaction of 3-phosphoglycerate and NAD to NADH.
In the following tests were made whether the C-terminus foreshortened mutant serAΔ197 was no longer blocked by L-serine. For that purpose initially the inhibition of the 3-phosphoglycerate-dehydrogenase of the wild type was investigated in cell-free extracts of C. glutamicum by L-serine based upon the above described enzyme tests. For that purpose to the test bath were added 1, 5 and 10 mM L-serine and were incubated for 5 minutes at 30° C. The reaction was then started by the addition of 15 mM […]. The incubation was necessary in order to be able to detect an inhibition (Table 4). This time dependency of the L-serine inhibition which required several minutes of incubation before a constant level of inhibition was reached has also been described for other 3-phosphoglycerate-dehydrogenase, for example for the purified enzyme of B. subtilis (Saski R. and Pitzer L., 1975, Eur. J. Biochem., 51:415-427).

[2] = system: overexpressed 3-phosphoglycerate-dehydrogenase in strain 13032pZ1serA; assay: Inhibition of the overexpressed 3-phosphoglycerate-dehydrogenase by L-serine in strain 13032pZ1serA; details: 10 mM L-serine, 5 minutes of incubation at 30° C.
Method: as §1
(§2) In the following tests were made whether the C-terminus foreshortened mutant serAΔ197 was no longer blocked by L-serine. For that purpose initially the inhibition of the 3-phosphoglycerate-dehydrogenase of the wild type was investigated in cell-free extracts of C. glutamicum by L-serine based upon the above described enzyme tests. For that purpose to the test bath were added 1, 5 and 10 mM L-serine and were incubated for 5 minutes at 30° C. The reaction was then started by the addition of 15 mM […]. […]

[3] = system: C-terminal foreshortened 3-phosphoglycerate-dehydrogenase mutant (serAΔ197) in strain 13032pZ1serAΔ197; assay: Inhibition of the overexpressed 3-phosphoglycerate-dehydrogenase by L-serine in strain 13032pZ1serAΔ197
Method: as §1, §2

[4] = system: 3-phosphoglycerate-dehydrogenase; assay: 3-phosphoglycerate-dehydrogenase enzyme test of strains overexpressing serA or shortened serA alleles
Method: The plasmids pziserA, pZiserAΔ79, pZiserAΔ188), pZiserAΔ197, pZiserAΔ205 and pZiserAΔ211 were introduced by electroporation individually into C. glutamicum. As a control, the media plasmid pZ1 was also electroporated into C. glutamicum ATCC 13032. The thus obtained strains 13032pZ1, 13032pZ1serA, 13032pZiserAΔ79, 13032pZiserAΔ188, 13032pZiserAΔ197, 13032pZiserAΔ205 and 13032pZiserAΔ211 were analyzed for overexpression of the 3-phosphoglycerate-dehydrogenase by means of is the 3-phosphoglycerate-dehydrogenase enzyme test. For this purpose the […] strains were activated in complex medium (CgIII=2.5 g NaCl, 10 g bacto-peptone, 10 g bacto-yeast extract, pH 7.4 with 2% glucose) and the minimal medium CGXII and each was separately seeded from the preculture. The medium was identical with the medium CGXII described by Keilhauer et al (Journal of Bacteriology (1993) 175: 5593-5603) but containing additionally 25 μg/mL of kanamycin.
The cells were harvested in the exponential growth phase at OD600 of 5 to 8 and washed twice in 100 mM Tris-HCl, pH 7.5. The cell pellets were then frozen at −20° C. until disintegration. […]
With these test results a specific activity of about 150 mU/mg protein can be determined for the wild-type 3-phosphoglycerate-dehydrogenase activity. […]

Molecule: N[C@@H](CO)C(=O)O [L-Serine, L-serine]
- Relative 3-Phosphoglycerate-Dehydrogenase Activity ([1]; 1 mM L-serine, 5 minute incubation at 30° C.): 96%
- Relative 3-Phosphoglycerate-Dehydrogenase Activity ([1]; 1 mM L-serine, without incubation): 106%
- Relative 3-Phosphoglycerate-Dehydrogenase Activity ([1]; 5 mM L-serine, 5 minute incubation at 30° C.): 82%
- Relative 3-Phosphoglycerate-Dehydrogenase Activity ([1]; 5 mM L-serine, without incubation): 112%
- Relative 3-Phosphoglycerate-Dehydrogenase Activity ([1]; 10 mM L-serine, 5 minute incubation at 30° C.): 56%
- Relative 3-Phosphoglycerate-Dehydrogenase Activity ([1]; 10 mM L-serine, without incubation): 104%
- Relative 3-Phosphoglycerate-Dehydrogenase Activity [2]: 34%
- L-serine inhibition of the foreshortened mutant (in words) [3]: no longer was significantly limited
- Relative 3-Phosphoglycerate-Dehydrogenase Activity ([3]; 10 mM L-serine, 5 minutes of incubation at 30° C.): 95%

B1: serAΔ197: serA allele coding for PGD with deletion of 197 C-terminal amino acids, SEQ ID No. 1 / 7 (protein, listed as Corynebacterium glutamicum)
chain: MSQNGRPVVLIADKLAQSTVDALGDAVEVRWVDGPNRPELLDAVKEADALLVRSATTVDAEVIAAAPNLKIVGRAGVGLDNVDIPAATEAGVMVANAPTSNIHSACEHAISLLLSTARQIPAADATLREGEWKRSSFNGVEIFGKTVGIVGFGHIGQLFAQRLAAFETTIVAYDPYANPARAAQLNVELVELDELMSRSDFVTIHLPKTKETAGMFDAQLLAKSKKGQIIINAARGGLVDEQALADAIESGHIRGAGFDVYSTEPCTDSPLFKLPQVVVTPHLGASTEEAQDRAGTDVADSVLKALAGEFVADAVNVSGGRVGEEVAVWMDLA
- share of the wild type activity ([4]; compared with overexpressed wild type): more than 60%
- overexpression / increase in specific 3-phosphoglycerate-dehydrogenase activity ([4]; with respect to the wild type protein): 10 fold
